Reference: US4331670A (priority 1979, dated 1982)
In brackets after ≈: the same amount, converted by molar mass.

What was measured:
Pyricularia orzae = assay: whole plant or invertebrate; format: in vivo, Pyricularia orzae (rice plant, Chukyo Asahi); conditions: in Oryza sativa, 120 h, read-out: Protective value
Rhizoctonia solani = assay: whole plant or invertebrate; format: in vivo, Rhizoctonia solani (rice plant, Chukyo Asahi); conditions: in Oryza sativa, 120 h, read-out: Preventive value
[1] = test system: Collectotrichum lagenarium; assay: Test 3: protective value on cucumber inoculated with Collectotrichum lagenarium; format: in vivo, Collectotrichum lagenarium (cucumber plant, Suyo); conditions: 500 ppm, 10 ml sprayed; lesions six days after inoculation
Protocol: In each unglazed pot having a diameter of 9 cm, cucumber plant (Suyo) was cultured. At one leaf stage, 10 ml. of each solution of each active ingredient having a concentration of 500 ppm was sprayed by a spray gun. After maintaining the pot in a green-house at 24° to 25° C. for one day, each spore suspension of Collectotrichum lagenarium was sprayed. Six days after the inoculation, number of lesions on the first leaf of seedling was observed. The protective value was calculated as Test 1.

Sphaerotheca fuliginea = assay: whole plant or invertebrate; format: in vivo, Sphaerotheca fuliginea (cucumber plant, Suyo); conditions: Podosphaera fuliginea, in Cucumis sativus, 240 h; read-out: Protective value
Phytophthora infestans = format: cell-based; conditions: PDA medium; fungus A: Phytophthora infestans
Alternaria solani = assay: Test 5: minimum growth inhibition concentration on PDA medium; format: cell-based; conditions: fungus C: Alternaria solani
Protocol: (§1) A mixture of 9 ml. of a potato-glucose-agar medium (PDA medium) and 1 ml. of each active ingredient was poured into each Petri-dish to be solidified. […] The following fungi were used.

Diaporthe citri = assay: as above; format: cell-based; conditions: fungus B: Diaporthe citri
Protocol: as §1

Venturia inaequalie = assay: as above; format: cell-based; conditions: fungus D: Venturia inaequalie
Protocol: as §1

Botrytis cinerea = assay: Test 9: protective value on cucumber inoculated with Botrytis cinerea; format: in vivo, Botrytis cinerea (cucumber plant, Suyo); conditions: 72 h; for pest or weed control at 250 ppm: 10 ml sprayed, lesion length three days after inoculation
In short: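 Cucumber at one-leaf stage sprayed with active ingredient at 250 ppm, kept in a greenhouse at 24–25 °C for one day, then inoculated with a PDA-grown Botrytis cinerea agar disc. Lesion length measured 3 days after inoculation and converted to protective value; some comparisons used lower concentrations.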

Plasmopara viticola = assay: whole plant or invertebrate; format: in vivo, Plasmopara viticola (cucumber plant, Suyo); conditions: in Cucumis sativus, 144 h, read-out: Protective value
Plutella xylostella = assay: Test 11: mortality of larvae of Plutella xylostella on treated cabbage leaf; format: in vivo; conditions: foliar, 192 h, leaf dipped, emulsifiable concentrate Composition No. 3, eight days, read-out: Percent mortality
From the text: Each emulsifiable concentrate of each active ingredient as Composition No. 3 was dispersed in water at a concentration of 800 ppm. Each leaf of cabbage was dipped into each emulsion for about 10 seconds and taken up and dried in air.
A wet filter paper was put in each Petri dish (diameter of 9 cm), and each treated leaf was put on the filter paper. Larvae of Plutella xylostella at 2nd to 3rd instar were charged and the dish was covered with a cap and kept in a constant temperature chamber with lighting at 28° C. Eight days after the charge, mortality was measured and each percent mortality was calculated.

[2] = test system: Aspergillum flavus IFO 6343; assay: Test 8: MIC by agar dilution process; format: cell-based; conditions: 168 h; Sabouraud's agar medium; 1 week
Protocol: (§2) Each minimum growth inhibition concentration (MIC) of Compound No. 16 to various microorganisms was measured by the agar dilution process. In the cases of bacteria, the results were observed 24 hours after the inoculation and in the cases of fungi, the results were observed 1 week after the inoculation.

[3] = test system: Aspergillum fumigatus IFO 4057; assay: Test 8: MIC by agar dilution process; format: cell-based; conditions: 168 h; Sabouraud's agar medium; 1 week
Protocol: as §2

[4] = test system: Aspergillum niger IFO 6341; assay: Test 8: MIC by agar dilution process; format: cell-based; conditions: 168 h; Sabouraud's agar medium; 1 week
Protocol: as §2

[5] = test system: Aureobasidium pullulans IFO 6353; assay: Test 8: MIC by agar dilution process; format: cell-based; conditions: IFO6353, 168 h, Sabouraud's agar medium, 1 week
Protocol: as §2

Bacillus subtilis PC1219 = assay: Test 8: MIC by agar dilution process; format: cell-based; conditions: Bouillon agar medium, 24 hours
Protocol: as §2

[6] = test system: Chaetomium globosum IFO 6347; assay: Test 8: MIC by agar dilution process; format: cell-based; conditions: IFO6347, 168 h, Sabouraud's agar medium, 1 week
Protocol: as §2

Escherichia coli = assay: Test 8: MIC by agar dilution process; format: cell-based; conditions: Bouillon agar medium, 24 hours
Protocol: as §2

[7] = test system: Gibberella fujikuroi IFO 6349; assay: Test 8: MIC by agar dilution process; format: cell-based; conditions: Fusarium fujikuroi, IFO6349, 168 h; Sabouraud's agar medium; 1 week
Protocol: as §2

[8] = test system: Gliocladium virens IFO 9166; assay: Test 8: MIC by agar dilution process; format: cell-based; conditions: Trichoderma virens, IFO9166, 168 h; Sabouraud's agar medium; 1 week
Protocol: as §2

[9] = test system: Klebsiella pneumoniae IFO 3512; assay: Test 8: MIC by agar dilution process; format: cell-based; conditions: IFO3512, Bouillon agar medium, 24 hours
Protocol: as §2

[10] = test system: Myrothecium verrucaria IFO 6133; assay: Test 8: MIC by agar dilution process; format: cell-based; conditions: Albifimbria verrucaria, IFO6133, 168 h; Sabouraud's agar medium; 1 week
Protocol: as §2

[11] = test system: Penicillium chrysogeum IFO 4626; assay: Test 8: MIC by agar dilution process; format: cell-based; conditions: IFO4626, 168 h, Sabouraud's agar medium, 1 week
Protocol: as §2

[12] = test system: Penicillium citrium IFO 6352; assay: Test 8: MIC by agar dilution process; format: cell-based; conditions: IFO6352, 168 h, Sabouraud's agar medium, 1 week
Protocol: as §2

[13] = test system: Penicillium funiculosum IFO 6354; assay: Test 8: MIC by agar dilution process; format: cell-based; conditions: Talaromyces funiculosus, IFO6354, 168 h; Sabouraud's agar medium; 1 week
Protocol: as §2

Penicillium italicum = assay: Test 8: MIC by agar dilution process; format: cell-based; conditions: 168 h, Sabouraud's agar medium, 1 week
Protocol: as §2

[14] = test system: Proteus morganii IFO 3848; assay: Test 8: MIC by agar dilution process; format: cell-based; conditions: Morganella morganii, IFO3848; Bouillon agar medium; 24 hours
Protocol: as §2

Pseudomonas aeruginosa = assay: Test 8: MIC by agar dilution process; format: cell-based; conditions: Bouillon agar medium, 24 hours
Protocol: as §2

[15] = test system: Salmonella typhimurium IFO 12529; assay: Test 8: MIC by agar dilution process; format: cell-based; conditions: Salmonella enterica; Bouillon agar medium; 24 hours
Protocol: as §2

[16] = test system: Serratia marcescens IFO 12648; assay: Test 8: MIC by agar dilution process; format: cell-based; conditions: IFO12648, Bouillon agar medium, 24 hours
Protocol: as §2

[17] = test system: Staphylococcus aureus 209P; assay: Test 8: MIC by agar dilution process; format: cell-based; conditions: Bouillon agar medium, 24 hours
Protocol: as §2

Trametes sanguinea = assay: Test 8: MIC by agar dilution process; format: cell-based; conditions: 168 h, Sabouraud's agar medium, 1 week
Protocol: as §2

Question: Which results are given for `O=[N+]([O-])c1cc(C(F)(F)F)c(Cl)c([N+](=O)[O-])c1Nc1ncc(C(F)(F)F)cc1Cl` [Compound No. 7, N-(3-chloro-5-trifluoromethyl-2-pyridyl)-2,6-dinitro-3-chloro-4-trifluoromethylaniline]?
Answer: pest or weed control at 12.5 ppm (Pyricularia orzae): 98%; pest or weed control at 25 ppm (Pyricularia orzae): 100%; pest or weed control at 100 ppm (Pyricularia orzae): 100%; pest or weed control at 100 ppm (Rhizoctonia solani): 100%; Protective value [1]: 100%; pest or weed control at 500 ppm (Sphaerotheca fuliginea): 100%; minimum growth inhibition concentration (Phytophthora infestans): 100; minimum growth inhibition concentration (Alternaria solani): < 1; minimum growth inhibition concentration (Diaporthe citri): < 1; minimum growth inhibition concentration (Venturia inaequalie): < 1; pest or weed control at 62.5 ppm (Botrytis cinerea; 62.5 ppm): 100%; pest or weed control at 250 ppm (Botrytis cinerea): 100%; pest or weed control at 500 ppm (Plasmopara viticola): 100%; mortality at 800 ppm (Plutella xylostella): 100%

Question: Which pest or weed control at 100 ppm (Pyricularia orzae) does the source give for `O=[N+]([O-])c1cc(C(F)(F)F)c(Cl)c([N+](=O)[O-])c1Nc1c(Cl)cncc1Cl` [Compound No. 16] here?
Answer: Its pest or weed control at 100 ppm is 100%.

Question: What about the pest or weed control at 100 ppm (Rhizoctonia solani) of the same molecule?
Answer: Its pest or weed control at 100 ppm is 100%.

Question: What about the pest or weed control at 500 ppm (Sphaerotheca fuliginea) of the same molecule?
Answer: The pest or weed control at 500 ppm was 100%.

Question: What about the MIC [2] of the same molecule?
Answer: Its MIC is 6.25 µg/mL (≈ 14.5 µM).

Question: What about the MIC [3] of the same molecule?
Answer: The MIC was 6.25 µg/mL (≈ 14.5 µM).

Question: And the MIC [4]?
Answer: The MIC was 3.12 µg/mL (≈ 7.23 µM).

Question: And the MIC [5]?
Answer: Its MIC is 6.25 µg/mL (≈ 14.5 µM).

Question: And the MIC (Bacillus subtilis PC1219)?
Answer: The MIC was less than 0.2 µg/mL.

Question: What about the MIC [6] of the same molecule?
Answer: The MIC was 3.12 µg/mL (≈ 7.23 µM).

Question: What about the MIC (Escherichia coli) of the same molecule?
Answer: The MIC was 12.5 µg/mL (≈ 29 µM).

Question: What about the MIC [7] of the same molecule?
Answer: Its MIC is 12.5 µg/mL (≈ 29 µM).

Question: What about the MIC [8] of the same molecule?
Answer: The MIC was 12.5 µg/mL (≈ 29 µM).

Question: What about the MIC [9] of the same molecule?
Answer: The MIC was 12.5 µg/mL (≈ 29 µM).

Question: What about the MIC [10] of the same molecule?
Answer: The MIC was 6.25 µg/mL (≈ 14.5 µM).

Question: And the MIC [11]?
Answer: The MIC was 3.12 µg/mL (≈ 7.23 µM).

Question: What about the MIC [12] of the same molecule?
Answer: Its MIC is 6.25 µg/mL (≈ 14.5 µM).

Question: And the MIC [13]?
Answer: Its MIC is 6.25 µg/mL (≈ 14.5 µM).

Question: What about the MIC (Penicillium italicum) of the same molecule?
Answer: The MIC was 3.12 µg/mL (≈ 7.23 µM).

Question: What about the MIC [14] of the same molecule?
Answer: The MIC was 6.25 µg/mL (≈ 14.5 µM).

Question: What about the MIC (Pseudomonas aeruginosa) of the same molecule?
Answer: The MIC was 12.5 µg/mL (≈ 29 µM).

Question: And the MIC [15]?
Answer: Its MIC is 6.25 µg/mL (≈ 14.5 µM).

Question: And the MIC [16]?
Answer: Its MIC is 6.25 µg/mL (≈ 14.5 µM).

Question: What about the MIC [17] of the same molecule?
Answer: The MIC was less than 0.2 µg/mL.

Question: What about the MIC (Trametes sanguinea) of the same molecule?
Answer: Its MIC is 6.25 µg/mL (≈ 14.5 µM).

Question: What about the pest or weed control at 250 ppm (Botrytis cinerea) of the same molecule?
Answer: Its pest or weed control at 250 ppm is 100%.
